This note sets out measurements from US8765775B2, “Anti-angiogenic compounds” (Universitaet Zuerich, priority 2008, dated 2014).

The structures appear in SMILES notation. “And” between values parts separate entries of the source, which are not always exact repeats. Equal values may be shown once.

Series [1] addresses T1, myc-tagged full-length human EphB4 (Homo sapiens, UniProt P54760).
T1 construct: stably transfected with myc-tagged full-length human EphB4; expressed in transfected cells; host or cells: CHO-FRT cells (Flip-In System, Invitrogen)
T1 sequence (P54760 16-987): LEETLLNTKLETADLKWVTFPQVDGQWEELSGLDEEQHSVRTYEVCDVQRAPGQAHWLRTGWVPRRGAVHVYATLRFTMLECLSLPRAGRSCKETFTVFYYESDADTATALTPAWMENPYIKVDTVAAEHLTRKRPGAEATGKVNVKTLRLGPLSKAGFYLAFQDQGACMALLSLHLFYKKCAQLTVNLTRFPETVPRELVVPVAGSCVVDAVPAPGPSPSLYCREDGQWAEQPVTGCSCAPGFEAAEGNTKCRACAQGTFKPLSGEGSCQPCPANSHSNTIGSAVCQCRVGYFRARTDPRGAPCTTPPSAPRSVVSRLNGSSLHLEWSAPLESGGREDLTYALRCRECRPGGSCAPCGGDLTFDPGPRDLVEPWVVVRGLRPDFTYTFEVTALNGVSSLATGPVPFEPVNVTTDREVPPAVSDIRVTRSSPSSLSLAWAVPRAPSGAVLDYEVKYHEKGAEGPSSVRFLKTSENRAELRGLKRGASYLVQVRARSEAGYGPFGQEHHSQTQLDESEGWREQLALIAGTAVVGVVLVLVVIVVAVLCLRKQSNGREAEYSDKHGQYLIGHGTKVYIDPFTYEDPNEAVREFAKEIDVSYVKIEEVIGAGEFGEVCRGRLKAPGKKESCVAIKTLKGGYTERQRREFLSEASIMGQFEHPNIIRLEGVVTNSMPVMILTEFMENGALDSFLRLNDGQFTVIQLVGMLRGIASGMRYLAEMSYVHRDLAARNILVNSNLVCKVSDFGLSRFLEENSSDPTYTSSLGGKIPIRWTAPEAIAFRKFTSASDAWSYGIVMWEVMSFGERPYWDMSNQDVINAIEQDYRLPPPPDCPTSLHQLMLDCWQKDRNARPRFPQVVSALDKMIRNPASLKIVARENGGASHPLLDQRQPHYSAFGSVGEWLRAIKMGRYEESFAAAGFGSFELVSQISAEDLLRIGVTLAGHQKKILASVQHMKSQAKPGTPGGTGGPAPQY
Nature of the series: Phospho-EphB4 ELISA of CHO cells (EphB4 autophosphorylation). Type of series: cell-based. Particulars: in CHO cells, at 20 μM. How it is done:
Phospho-EphB4 ELISA of CHO cells. The ELISA assay was performed as follows: Chinese hamster ovary (CHO)-FRT cells are stably transfected with myc-tagged full-length human EphB4 according to the Flip-In System protocol (Invitrogen, USA). […] Cells of this clone are preincubated with EphB4 inhibitors for 15 minutes and then stimulated with preclustered ephrinB2-Fc for 45 minutes at 37° C. Cells are lysed, transferred to a 96-well plate coated with anti-myc antibody and incubated overnight at 4° C. After incubation with anti-phosphotyrosine antibody, reactions are developed with BM Blue peroxydase substrate, and autophosphorylation of EphB4 is quantified by measuring absorption at 450 nm.

Series [2] deals with T2, EphB4 (Homo sapiens, UniProt P54760).
T2 sequence (P54760 16-987): T1 sequence (P54760 16-987)
Briefly: IC50 and % inhibition (Table 3). In kind it is biochemical. Particulars: for inhibition at 10 µM / inhibition at 20 µM: read-out: % inhibition at indicated concentration C; for IC50: Table 3, repeated determinations, read-out: IC50.

Series [3] has as its target T2, EphB4. Nature of the series: Panvera Z'Lyte FRET-based enzymatic assay. Conditions: for Inhibitory activity in the enzymatic assay (in words): Z'Lyte.
Description: In vitro kinase activity was measured using the Panvera Z'Lyte Tyr2 kinase assay PV3191 (Invitrogen, USA), according to the manufacturer's instructions. […] The reaction is performed at room temperature for 1 hour.

Consider `CCCn1c(-c2ccccc2)cn2c3c(=O)[nH]c(=O)n(C)c3nc12` [Compound 4], for which the “Cell-based assay percent inhibition” value in series [1] is “neg”. On EphB4 [2] (C = 10 μM, 10 µM), the “% inhibition at indicated concentration C” value (“% inhibition” below) was 58% and 54%. For the same compound, on EphB4 [2] (C = 10 μM), the inhibition at 10 µM came to 62%. For the same compound, the IC50 on EphB4 [2] is 8 µM and 9 µM. In addition, on EphB4 [3], the IC50 was 1.9 µM and the “Inhibitory activity in the enzymatic assay (in words)” value is “low-micromolar”.
Take `COCCCn1c(-c2ccccc2)cn2c3c(=O)[nH]c(=O)n(C)c3nc12` [Compound 6]: the inhibition at 20 µM in series [1] (read-out: Cell-based assay percent inhibition) was determined as 28%. In addition, on EphB4 [2] (C = 10 μM, 10 µM), the “% inhibition” value is reported as 46%. The inhibition at 10 µM at EphB4 [2] (C = 10 μM) was found to be 49%. Also, on EphB4 [3], the midpoint of inhibition, the IC50, lay at 50 µM and the “Inhibitory activity in the enzymatic assay (in words)” value was “mid-micromolar range”.
Consider `CC1(C)Cc2c(sc(NC(=O)Nc3ccccc3)c2C(N)=O)CO1` [Compound 9, reference compound], for which the concentration for half-maximal inhibition (IC50) on EphB4 [3] (read-out: Enzymatic assays IC50 Z′Lyte, FRET-based, 10 μM ATP, 1% DMSO, room temperature 1 hour) came out at 76 µM.
As to `COc1ccc(-n2c(-c3ccc(F)cc3)cn3c4c(=O)[nH]c(=O)n(C)c4nc23)c(OC)c1` [Compound 16], the “% inhibition” value at EphB4 [2] (C = 10 μM, 10 µM) is 50% and 28%.
`COc1ccc(OC)c(-n2c(-c3ccc(F)cc3)cn3c4c(=O)[nH]c(=O)n(C)c4nc23)c1` [Compound 17]: on EphB4 [2] (C = 10 μM, 10 µM), the “% inhibition” value is recorded as 62%. Further, the inhibition at 10 µM on EphB4 [2] (C = 10 μM) is 72%.
Consider `O=c1[nH]c(=O)n(Cc2ccccc2)c2nc3[nH]c(-c4ccccc4)cn3c12` [Compound 18, 1-Benzyl-7-phenyl-1H-imidazo[2,1-f]purine-2,4(3H,9H)-dione], for which the melting point was in the range of 393 to 395 °C.
In the case of `Cn1c(-c2ccccc2)cn2c3c(=O)[nH]c(=O)n(Cc4ccccc4)c3nc12` [Compound 19, 1-Benzyl-8-methyl-7-phenyl-1H-imidazo[2,1-f]purine-2,4(3H,8H)-dione], the melting point fell in the range of 306 to 308 °C.
On the same count and under the same terms, the same measure for `CNc1ccc(-c2cn3c4c(=O)[nH]c(=O)n(Cc5ccccc5)c4nc3n2C)cc1` [Compound 20, 1-Benzyl-8-methyl-7-p-methylaminophenyl-1H-imidazo[2,1-f]purine-2,4(3H,8H)-dione]: 288 to 290 °C; for `O=c1[nH]c(=O)n(Cc2ccccc2)c2nc3n(-c4ccccc4)c(-c4ccc(F)cc4)cn3c12` [Compound 21, 1-Benzyl-7-p-fluorophenyl-8-phenyl-1H-imidazo[2,1-f]purine-2,4(3H,8H)-dione]: 250 to 252 °C; for `COc1ccccc1-n1c(-c2ccc(F)cc2)cn2c3c(=O)[nH]c(=O)n(Cc4ccccc4)c3nc12` [Compound 22, 1-Benzyl-7-p-fluorophenyl-8-(2-methoxyphenyl)-1H-imidazo[2,1-f]purine-2,4(3H,8H)-dione]: 251 to 253 °C.
Take `COc1ccccc1-n1c(-c2ccccc2)cn2c3c(=O)[nH]c(=O)n(Cc4ccccc4)c3nc12` [Compound 25, 1-Benzyl-8-(2-methoxyphenyl)-7-phenyl-1H-imidazo[2,1-f]purine-2,4(3H,8H)-dione]: the melting point was in the range of 301 to 303 °C. In addition, the “% inhibition” value on EphB4 [2] (C = 10 μM, 10 µM) was found to be 11%. Also, on EphB4 [2] (C = 10 μM), the inhibition at 10 µM was 15%.
On to `COc1ccccc1-n1c(-c2ccc([N+](=O)[O-])cc2)cn2c3c(=O)[nH]c(=O)n(C)c3nc12` [Compound 27, 8-(2-Methoxyphenyl)-1-methyl-7-p-nitrophenyl-1H-imidazo[2,1-f]purine-2,4(3H,8H)-dione], for which the melting point fell in the range of 323 to 325 °C.
With `COc1ccccc1-n1c(-c2ccc(C#N)cc2)cn2c3c(=O)[nH]c(=O)n(C)c3nc12` [Compound 28, 8-(2-Methoxyphenyl)-1-methyl-7-p-cyanophenyl-1H-imidazo[2,1-f]purine-2,4(3H,8H)-dione], the melting point was 303 to 305 °C. For the same compound, the “% inhibition” value at EphB4 [2] (C = 20 μM, 20 µM) turned out to be 17%. Also, the inhibition at 20 µM at EphB4 [2] (C = 20 μM) turned out to be 13%.
`Cn1c(=O)[nH]c(=O)c2c1nc1n(CCCCO)c(-c3ccc(NCCCCO)cc3)cn21` [Compound 29] showed a melting point of 205 to 207 °C. Besides, the “% inhibition” value on EphB4 [2] (C = 20 μM, 20 µM) was 50% and 62% and 37% and 34%.
Consider `COc1ccccc1-n1c(-c2ccc(F)cc2)cn2c3c(=O)[nH]c(=O)[nH]c3nc12` [Compound 30, 7-p-Fluorophenyl-8-(2-methoxyphenyl)-1H-imidazo[2,1-f]purine-2,4(3H,8H)-dione], for which the IC50 at EphB4 [2] is 4.6 µM and 6.2 µM.
Consider `COC(=O)Cn1c(=O)[nH]c(=O)c2c1nc1n(-c3ccccc3OC)c(-c3ccc(F)cc3)cn21` [Compound 32, 8-(2-Methoxyphenyl)-1-(methoxy-2-oxoethyl)-7-(p-Fluorophenyl)-1H-imidazo[2,1-f]purine-2,4(3H,8H)-dione], for which the half-inhibitory concentration (IC50) on EphB4 [2] is 9.5 µM and 8.9 µM.
In the case of `COc1ccccc1-n1c(-c2ccc(F)cc2)cn2c3c(=O)[nH]c(=O)n(CSC)c3nc12` [Compound 34, 8-(2-Methoxyphenyl)-1-(methylthiomethyl)-7-(p-Fluorophenyl)-1H-imidazo[2,1-f]purine-2,4(3H,8H)-dione], the IC50 at EphB4 [2] was 5.1 µM and 6.4 µM.
Consider `COc1ccccc1-n1c(-c2ccc(F)cc2)cn2c3c(=O)[nH]c(=O)n(CS(C)(=O)=O)c3nc12` [Compound 35, 8-(2-Methoxyphenyl)-1-(methylsulfonylmethyl)-7-(p-Fluorophenyl)-1H-imidazo[2,1-f]purine-2,4(3H,8H)-dione], for which the IC50 on EphB4 [2] is 7.9 µM and 7.1 µM.
For `O=c1[nH]c(=O)n(Cc2ccccc2)c2nc3n(-c4ccccc4)c(-c4ccc(F)cc4)c(Br)n3c12` [Compound 36, 1-Benzyl-6-bromo-7-p-fluorophenyl-8-phenyl-1H-imidazo[2,1-f]purine-2,4(3H,8H)-dione], the melting point was 276 to 278 °C. For the same compound, the “% inhibition” value on EphB4 [2] (C = 10 μM, 10 µM) was 10% and 4%.
Take `COc1ccccc1-n1c(-c2ccccc2)c(Br)n2c3c(=O)[nH]c(=O)n(C)c3nc12` [Compound 37, 6-Bromo-8-(2-methoxyphenyl)-1-methyl-7-phenyl-1H-imidazo[2,1-f]purine-2,4(3H,8H)-dione]: the melting point lay in the range of 274 to 276 °C.
The compound `CCCCn1c(-c2ccccc2)c(Br)n2c3c(=O)[nH]c(=O)n(C)c3nc12` [Compound 38, 6-Bromo-8-butyl-1-methyl-7-phenyl-1H-imidazo[2,1-f]purine-2,4(3H,8H)-dione] came in with a melting point of 302 to 304 °C.
In the case of `COc1ccccc1-n1c(-c2ccccc2)c(C#N)n2c3c(=O)[nH]c(=O)n(C)c3nc12` [Compound 41, 6-Cyano-8-(2-methoxyphenyl)-1-methyl-7-phenyl-1H-imidazo[2,1-f]purine-2,4(3H,8H)-dione], the “% inhibition” value at EphB4 [2] (C = 20 μM, 20 µM) came out at 30%. Further, the inhibition at 20 µM on EphB4 [2] (C = 20 μM) was determined as 21%.
As for `COc1ccccc1-n1c(-c2ccc(C(=O)O)cc2)cn2c3c(=O)[nH]c(=O)n(C)c3nc12` [Compound 44, 8-(2-Methoxyphenyl)-1-methyl-7-p-carboxyphenyl-1H-imidazo[2,1-f]purine-2,4(3H,8H)-dione], the “% inhibition” value on EphB4 [2] (C = 20 μM, 20 µM) was 23% and 19% and 13%. Besides, the inhibition at 20 µM on EphB4 [2] (C = 20 μM) amounted to 12%.
